Measured values taken from US11059832B2, “HPK1 inhibitors and methods of using same” (University Health Network, priority 2015, dated 2021).

Target: T1, human HPK1 (MAP4K1) (Homo sapiens, UniProt Q92918)
T1 construct: human HPK1 (aa 1-346); purchased Invitrogen PV6355
T1 sequence (Q92918 1-346): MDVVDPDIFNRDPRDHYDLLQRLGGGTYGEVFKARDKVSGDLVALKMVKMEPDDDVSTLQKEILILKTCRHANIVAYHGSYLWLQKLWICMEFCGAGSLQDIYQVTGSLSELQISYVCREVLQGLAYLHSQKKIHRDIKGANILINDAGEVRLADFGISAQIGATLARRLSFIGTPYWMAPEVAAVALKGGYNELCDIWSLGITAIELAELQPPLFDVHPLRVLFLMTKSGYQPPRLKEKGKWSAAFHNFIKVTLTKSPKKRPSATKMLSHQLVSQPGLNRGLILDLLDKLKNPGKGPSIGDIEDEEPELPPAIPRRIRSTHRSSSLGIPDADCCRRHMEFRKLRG
Assay: HPK1 inhibition assay (indirect ELISA)
Assay type: biochemical
Settings: GST-HPK1 0.6 nM, 12 μM ATP; read-out: IC50 Range HPK1
Method: Active HPK1 (MAP4K1) was purchased as an N-terminal GST fusion of human HPK1 (aa 1-346) from Invitrogen (cat #PV6355). HPK1 activity was measured using an indirect ELISA detection system. GST-HPK1 (0.6 nM) was incubated in the presence of 12 μM ATP (Sigma cat #A7699), 5 mM MOPS (pH 7.2), 2.5 mM β-glycerol-phosphate, 5 mM MgCl2, 0.4 mM EDTA, 1 mM EGTA, 0.05 mM DTT, in a 96 well microtitre plate pre-coated with 0.5 μg/well bovine myelin basic protein (MBP) (Millipore, cat #13-110). The reaction was allowed to proceed for 30 min, followed by 5 washes of the plate with Wash Buffer (phosphate buffered saline supplemented with 0.2% Tween 20), and incubation for 30 min with a 1:3000 dilution of anti-phospho-threonine rabbit polyclonal antibody (Cell Signaling cat #9381). The plate was washed 5 times with wash buffer, incubated for 30 min in the presence of goat anti-rabbit horse radish peroxidase conjugate (BioRad cat #1721019, 1:3000 concentration), washed an additional 5 times with wash buffer, and incubated in the presence of TMB substrate (Sigma cat #T0440). The colorimetric reaction was allowed to continue for 5 min, followed by addition of stop solution (0.5 N H2SO4), and quantified by detection at 450 nm with a monochromatic plate reader (Molecular Devices M5).
Compound inhibition was determined at either a fixed concentration (10 μM) or at a variable inhibitor concentration (typically 50 μM to 0.1 μM in a 10 point dose response titration). Compounds were pre-incubated in the presence of enzyme for 15 min prior to addition of ATP and the activity remaining quantified using the above described activity assay. The % inhibition of a compound was determined using the following formula; % inhibition=100×(1−(experimental value−background value)/(high activity control−background value)). The IC50 value was determined using a non-linear 4 point logistic curve fit (XLfit4, IDBS) with the formula; (A+(B/(1+((x/C)^D)))), where A=background value, B=range, C=inflection point, D=curve fit parameter.

| SMILES | IC50 |
| --- | --- |
| Cc1cc2c(N)c(-c3nc4ccc(N5CCN(C)CC5)cc4[nH]3)c(=O)[nH]c2s1 [Example A3, 4-amino-2-methyl-5-(6-(4-methylpiperazin-1-yl)-1H-benzo[d]imidazol-2-yl)thieno[2,3-b]pyridin-6(7H)-one] | > 0.5 µM |
| COc1csc2[nH]c(=O)c(-c3nc4ccc(N5CCN(C)CC5)cc4[nH]3)c(N)c12 [Example A5, 4-amino-3-methoxy-5-(6-(4-methylpiperazin-1-yl)-1H-benzo[d]imidazol-2-yl)thieno[2,3-b]pyridin-6(7H)-one] | > 0.5 µM |
| CCOc1csc2[nH]c(=O)c(-c3nc4ccc(N5CCN(C)CC5)cc4[nH]3)c(N)c12 [Example A6, 4-amino-3-ethoxy-5-(6-(4-methylpiperazin-1-yl)-1H-benzo[d]imidazol-2-yl)thieno[2,3-b]pyridin-6(7H)-one] | 0.05 to 0.5 µM |
| CN1CCN(c2ccc3nc(-c4c(N[C@H]5CCOC5)c5ccsc5[nH]c4=O)[nH]c3c2)CC1 [Example A11, (S)-5-(6-(4-methylpiperazin-1-yl)-1H-benzo[d]imidazol-2-yl)-4-((tetrahydrofuran-3-yl)amino)thieno[2,3-b]pyridin-6(7H)-one] | ≤ 0.05 µM |
| CN1CCN(c2ccc3nc(-c4c(N[C@H]5C[C@@H](O)C5)c5ccsc5[nH]c4=O)[nH]c3c2)CC1 [Example A12, 4-(((1s,3s)-3-hydroxycyclobutyl)amino)-5-(6-(4-methylpiperazin-1-yl)-1H-benzo[d]imidazol-2-yl)thieno[2,3-b]pyridin-6(7H)-one] | ≤ 0.05 µM |
| CC(C)[C@H](CO)Nc1c(-c2nc3ccc(N4CCN(C)CC4)cc3[nH]2)c(=O)[nH]c2sccc12 [Example A16, (R)-4-((1-hydroxy-3-methylbutan-2-yl)amino)-5-(6-(4-methylpiperazin-1-yl)-1H-benzo[d]imidazol-2-yl)thieno[2,3-b]pyridin-6(7H)-one] | ≤ 0.05 µM |
| Cc1csc2[nH]c(=O)c(-c3nc4ccc(N5CCN(C)CC5)cc4[nH]3)c(NC3CCCC3)c12 [Example A19, 4-(cyclopentylamino)-3-methyl-5-(6-(4-methylpiperazin-1-yl)-1H-benzo[d]imidazol-2-yl)thieno[2,3-b]pyridin-6(7H)-one] | 0.05 to 0.5 µM |
| Cc1csc2[nH]c(=O)c(-c3nc4ccc(N5CCN(C)CC5)cc4[nH]3)c(NC3CCOCC3)c12 [Example A20, 3-methyl-5-(6-(4-methylpiperazin-1-yl)-1H-benzo[d]imidazol-2-yl)-4-((tetrahydro-2H-pyran-4-yl)amino)thieno[2,3-b]pyridin-6(7H)-one] | > 0.5 µM |
| CN1CCN(c2ccc3nc(-c4c(NC5CCOCC5)c5cscc5[nH]c4=O)[nH]c3c2)CC1 [Example A25, 3-(6-(4-methylpiperazin-1-yl)-1H-benzo[d]imidazol-2-yl)-4-((tetrahydro-2H-pyran-4-yl)amino)thieno[3,4-b]pyridin-2(1H)-one] | ≤ 0.05 µM |
| CN1CCN(c2ccc3nc(-c4c(NCCN5CCOCC5)c5cscc5[nH]c4=O)[nH]c3c2)CC1 [Example A26, 3-(6-(4-methylpiperazin-1-yl)-1H-benzo[d]imidazol-2-yl)-4-((2-morpholinoethyl)amino) thieno[3,4-b]pyridin-2(1H)-one] | ≤ 0.05 µM |
| CN1CCN(c2ccc3nc(-c4c(NCc5ccccn5)c5cscc5[nH]c4=O)[nH]c3c2)CC1 [Example A28, 3-(6-(4-methylpiperazin-1-yl)-1H-benzo[d]imidazol-2-yl)-4-((pyridin-2-ylmethyl)amino)thieno[3,4-b]pyridin-2(1H)-one] | ≤ 0.05 µM |
| CN1CCN(c2ccc3nc(-c4c(O)c5sccc5[nH]c4=O)[nH]c3c2)CC1 [Example A29, 7-hydroxy-6-(6-(4-methylpiperazin-1-yl)-1H-benzo[d]imidazol-2-yl)thieno[3,2-b]pyridin-5(4H)-one] | ≤ 0.05 µM |
| Cc1cc2[nH]c(=O)c(-c3nc4ccc(N5CCN(C)CC5)cc4[nH]3)c(N)c2s1 [Example A32, 7-amino-2-methyl-6-(6-(4-methylpiperazin-1-yl)-1H-benzo[d]imidazol-2-yl)thieno[3,2-b]pyridin-5(4H)-one] | > 0.5 µM |
| C[C@@H]1CN(c2ccc3nc(-c4c(NC5CCCC5)c5sccc5[nH]c4=O)[nH]c3c2)C[C@H](C)N1C [Example A47, 7-(cyclopentylamino)-6-(6-(3r,5s)-rel-3,4,5-trimethylpiper-azin-1-yl)-1H-benzo[d]imidazol-2-yl)thieno[3,2-b]pyridin-5(4H)-one] | ≤ 0.05 µM |
| CN1CCN(c2ccc3nc(-c4c(N5CCOCC5)c5sccc5[nH]c4=O)[nH]c3c2)CC1 [Example A49, 6-(6-(4-methylpiperazin-1-yl)-1H-benzo[d]imidazol-2-yl)-7-morpholinothieno[3,2-b]pyridin-5(4H)-one] | > 0.5 µM |
| CN1CCN(c2ccc3nc(-c4c(N5CCC(O)CC5)c5sccc5[nH]c4=O)[nH]c3c2)CC1 [Example A50, 7-(4-hydroxypiperidin-1-yl)-6-(6-(4-methylpiperazin-1-yl)-1H-benzo[d]imidazol-2-yl)thieno[3,2-b]pyridin-5(4H)-one] | > 0.5 µM |

Second part, the molecule after the results:

| IC50 | SMILES |
| --- | --- |
| ≤ 0.05 µM | Nc1c(-c2nc3cc(F)c(N4CCOCC4)cc3[nH]2)c(=O)[nH]c2sccc12 [Example A56, 4-amino-5-(5-fluoro-6-morpholino-1H-benzo[d]-imidazol-2-yl)-thieno-[2,3b]-pyridin-6(7H)-one] |
| 0.05 to 0.5 µM | CN1CCN(C(=O)c2ccc3[nH]c(-c4c(N)c5ccsc5[nH]c4=O)nc3c2)CC1 [Example A60, 4-amino-5-(5-(4-methylpiperazine-1-carbonyl)-1H-benzo[d]imidazol-2-yl)thieno[2,3-b]-pyridin-6(7H)-one] |
| 0.05 to 0.5 µM | Nc1c(-c2nc3cc(C(=O)N4CCOCC4)ccc3[nH]2)c(=O)[nH]c2sccc12 [Example A62, 4-amino-5-(5-(morpho-line-4-carbonyl)-1H-benzo-[d]imidazol-2-yl)thieno[2,3-b]pyridin-6(7H)-one] |
| ≤ 0.05 µM | CN1CCN(c2ccc3nc(-c4c(NC5CC5)c5sccc5[nH]c4=O)[nH]c3c2)CC1 [Example A63, 7-(cyclopropylamino)-6-(6-(4-methylpiperazin-1-yl)-1H-benzo[d]imidazol-2-yl)thieno[3,2-b]-pyridin-5(4H)-one 2,2,2-trifluroaceatate] |
| 0.05 to 0.5 µM | C[C@@H]1CN(c2ccc3nc(-c4c(N[C@H]5CCCC[C@H]5O)c5ccsc5[nH]c4=O)[nH]c3c2)C[C@H](C)O1 [Example A73] |
| ≤ 0.05 µM | COCCNc1c(-c2nc3ccc(N4CCN(C)CC4)cc3[nH]2)c(=O)[nH]c2sccc12 [Example A74, 4-((2-methoxyethyl)amino)-5-(6-(4-methylpiperazin-1-yl)-1H-benzo[d]imidazol-2-yl)thieno[2,3-b]pyridin-6(7H)-one] |
| ≤ 0.05 µM | CN1CCN(c2ccc3nc(-c4c(N[C@@H]5CCC[C@H]5O)c5cscc5[nH]c4=O)[nH]c3c2)CC1 [Example A75, 4-(((1R,2R)-2-hydroxycyclopentyl)amino)-3-(6-(4-methylpiperazin-1-yl)-1H-benzo[d]imidazol-2-yl)thieno[3,4-b]pyridin-2(1H)-one] |
| ≤ 0.05 µM | C[C@@H]1CN(c2ccc3nc(-c4c(N)c5ccsc5[nH]c4=O)[nH]c3c2)C[C@H](C)O1 [Example A76, 4-amino-5-(6-((2S,6R)-2,6-dimethylmorpholino)-1H-benzo[d]imidazol-2-yl)thieno[2,3-b]pyridin-6(7H)-one] |
| ≤ 0.05 µM | CN1CCN(c2ccc3nc(-c4c(N[C@@H]5CCCOC5)c5ccsc5[nH]c4=O)[nH]c3c2)CC1 [Example A77, (R)-5-(6-(4-methylpiperazin-1-yl)-1H-benzo[d]imidazol-2-yl)-4-((tetrahydro-2H-pyran-3-yl)amino)thieno[2,3-b]pyridin-6(7H)-one] |

Target: T2, LCK (Homo sapiens, UniProt P06239)
T2 construct: purchased Invitrogen P3043
T2 sequence (P06239 whole entry, species assumed): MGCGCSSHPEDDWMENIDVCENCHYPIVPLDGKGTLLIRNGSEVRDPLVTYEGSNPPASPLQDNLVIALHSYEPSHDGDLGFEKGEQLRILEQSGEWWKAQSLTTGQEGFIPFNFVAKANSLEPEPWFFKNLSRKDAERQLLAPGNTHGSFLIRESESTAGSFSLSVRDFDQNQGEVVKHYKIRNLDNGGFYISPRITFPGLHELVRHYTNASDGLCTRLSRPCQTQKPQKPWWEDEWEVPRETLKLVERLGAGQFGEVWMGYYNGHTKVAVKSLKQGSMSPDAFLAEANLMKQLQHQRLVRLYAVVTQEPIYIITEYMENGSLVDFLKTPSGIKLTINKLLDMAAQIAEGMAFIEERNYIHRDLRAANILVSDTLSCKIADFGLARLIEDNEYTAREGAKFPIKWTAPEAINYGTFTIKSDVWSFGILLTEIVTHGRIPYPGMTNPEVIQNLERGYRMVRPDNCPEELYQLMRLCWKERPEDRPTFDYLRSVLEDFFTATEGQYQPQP
Assay: LCK inhibition, FRET based Z'-LYTE Kinase Assay
Assay type: biochemical
Settings: 25 nM LCK, 180 μM ATP; read-out: IC50 Range Lck
Method: FLT3 and LCK compound inhibition were determined using FRET based Z′-LYTE Kinase Assay Kit with Tyrosine 2 peptide as the substrate (Invitrogen cat #PV3191). […] The % inhibition values were determined according to the manufacturer's directions and IC50 values were obtained using a non-linear 4 point logistic curve fit (XLfit4, IDBS).

| IC50 | SMILES |
| --- | --- |
| > 0.5 µM | COc1csc2[nH]c(=O)c(-c3nc4ccc(N5CCN(C)CC5)cc4[nH]3)c(N)c12 [Example A5, 4-amino-3-methoxy-5-(6-(4-methylpiperazin-1-yl)-1H-benzo[d]imidazol-2-yl)thieno[2,3-b]pyridin-6(7H)-one] |
| 0.05 to 0.5 µM | CN1CCN(c2ccc3nc(-c4c(O)c5sccc5[nH]c4=O)[nH]c3c2)CC1 [Example A29, 7-hydroxy-6-(6-(4-methylpiperazin-1-yl)-1H-benzo[d]imidazol-2-yl)thieno[3,2-b]pyridin-5(4H)-one] |
| ≤ 0.05 µM | Cc1cc2[nH]c(=O)c(-c3nc4ccc(N5CCN(C)CC5)cc4[nH]3)c(N)c2s1 [Example A32, 7-amino-2-methyl-6-(6-(4-methylpiperazin-1-yl)-1H-benzo[d]imidazol-2-yl)thieno[3,2-b]pyridin-5(4H)-one] |
| > 0.5 µM | CN1CCN(c2ccc3nc(-c4c(N5CCC(O)CC5)c5sccc5[nH]c4=O)[nH]c3c2)CC1 [Example A50, 7-(4-hydroxypiperidin-1-yl)-6-(6-(4-methylpiperazin-1-yl)-1H-benzo[d]imidazol-2-yl)thieno[3,2-b]pyridin-5(4H)-one] |
| 0.05 to 0.5 µM | CN1CCN(C(=O)c2ccc3[nH]c(-c4c(N)c5ccsc5[nH]c4=O)nc3c2)CC1 [Example A60, 4-amino-5-(5-(4-methylpiperazine-1-carbonyl)-1H-benzo[d]imidazol-2-yl)thieno[2,3-b]-pyridin-6(7H)-one] |
